Earlier results in US7635572B2, “Methods for conducting assays for enzyme activity on protein microarrays” (Life Technologies Corporation, priority 2004, dated 2009).

Test system: 39 kinases (Table 4)
Conditions: known general specificities of the inhibitors, Table 3; cited from earlier work

Oc1ccc(-c2nc(-c3ccncc3)c(-c3ccc(F)cc3)[nH]2)cc1 [SB 202190]
General Specificity (known): serine/threonine
